Measurements reported in patent US20230398130A1, “METHODS AND COMPOSITIONS FOR DIFFERENTIATING STEM CELLS” (Massachusetts Institute of Technology, priority 2020, published 2023).

What was measured:
ISC-enriched organoids [1] = experiment: Primary screen, 384-well 2.5-D organoid differentiation (ENR+CD, 6 days): carbachol-induced lysozyme secretion (LYZ.S); format: cell-based, murine; conditions: vs plate median; for Dose.FC.LYZ.S (log 2 fold change): primary screen
Description: (§1) High-throughput screening.

ISC-enriched organoids [2] = experiment: Primary screen, 384-well 2.5-D organoid differentiation (ENR+CD, 6 days): basal lysozyme secretion (LYZ.NS); format: cell-based, murine; conditions: for Dose.FC.LYZ.NS (log 2 fold change, basal lysozyme secretion) / Dose.FC.LYZ.NS (log 2 fold change): vs plate median
Description: as §1

ISC-enriched organoids [3] = experiment: Primary screen, 384-well 2.5-D organoid differentiation (ENR+CD, 6 days, Target Selective Inhibitor Library, vs whole-plate median): ATP (CellTiter-Glo 3D, CTG); conditions: for Dose.FC.CTG (log 2 fold change, ATP) / Dose.FC.CTG (log 2 fold change): vs plate median

SMILES	Dose.FC.LYZ.S (log 2 fold change, carbachol-induced lysozyme secretion) (ISC-enriched organoids [1]; dose 0.08 uM)	Dose.FC.LYZ.S (log 2 fold change, carbachol-induced lysozyme secretion) (ISC-enriched organoids [1]; dose 0.40 uM)	Dose.FC.LYZ.S (log 2 fold change, carbachol-induced lysozyme secretion) (ISC-enriched organoids [1]; dose 2.00 uM)	Dose.FC.LYZ.S (log 2 fold change, carbachol-induced lysozyme secretion) (ISC-enriched organoids [1]; dose 10.00 uM)	Z.LYZ.NS (standard z score) (ISC-enriched organoids [2]; dose 0.08 uM)	Dose.FC.LYZ.NS (log 2 fold change, basal lysozyme secretion) (ISC-enriched organoids [2]; dose 0.08 uM)	Z.LYZ.NS (standard z score) (ISC-enriched organoids [2]; dose 0.40 uM)	Dose.FC.LYZ.NS (log 2 fold change, basal lysozyme secretion) (ISC-enriched organoids [2]; dose 0.40 uM)	Z.LYZ.NS (standard z score) (ISC-enriched organoids [2]; dose 2.00 uM)	Dose.FC.LYZ.NS (log 2 fold change, basal lysozyme secretion) (ISC-enriched organoids [2]; dose 2.00 uM)	Z.LYZ.NS (standard z score) (ISC-enriched organoids [2]; dose 10.00 uM)	Dose.FC.LYZ.NS (log 2 fold change, basal lysozyme secretion) (ISC-enriched organoids [2]; dose 10.00 uM)	Z.CTG (standard z score) (ISC-enriched organoids [3]; dose 0.08 uM)	Dose.FC.CTG (log 2 fold change, ATP) (ISC-enriched organoids [3]; dose 0.08 uM)	Z.CTG (standard z score) (ISC-enriched organoids [3]; dose 0.40 uM)	Dose.FC.CTG (log 2 fold change, ATP) (ISC-enriched organoids [3]; dose 0.40 uM)	Z.CTG (standard z score) (ISC-enriched organoids [3]; dose 2.00 uM)	Dose.FC.CTG (log 2 fold change, ATP) (ISC-enriched organoids [3]; dose 2.00 uM)	Z.CTG (standard z score) (ISC-enriched organoids [3]; dose 10.00 uM)	Dose.FC.CTG (log 2 fold change, ATP) (ISC-enriched organoids [3]; dose 10.00 uM)	also measured
Nc1nc(N)c2nc(-c3cccc(O)c3)c(-c3cccc(O)c3)nc2n1 [TG100-115]	0.073	0.032	−0.019	−0.100	1.812	0.208	−0.223	−0.026	0.025	0.003	−0.223	−0.026	−0.611	−0.256	0.158	0.066	−0.031	−0.013	−0.277	−0.116	
NC(=O)Nc1sc(-c2ccc(F)cc2)cc1C(N)=O [TPCA-1]	0.041	−0.029	−0.054	−0.294	0.627	0.072	−0.413	−0.047	−0.514	−0.059	−1.711	−0.197	−0.146	−0.061	−0.010	−0.004	−0.012	−0.005	−1.269	−0.531	
Nc1cccc(-c2cc3c(Oc4cccc(O)c4)ncnc3[nH]2)c1 [TWS119]	0.207	0.142	0.044	−0.283	0.820	0.094	0.327	0.038	0.304	0.035	−2.027	−0.233	0.784	0.328	0.796	0.333	0.169	0.071	−2.866	−1.200	
COc1cc2c(N3CCN(C(=O)Nc4ccc(OC(C)C)cc4)CC3)ncnc2cc1OCCCN1CCCCC1 [Tandutinib (MLN518)]																					Dose.FC.LYZ.S (log 2 fold change) (ISC-enriched organoids [1]; Dose 0.08 uM): 0.145; Dose.FC.LYZ.S (log 2 fold change) (ISC-enriched organoids [1]; Dose 0.40 uM): 0.178; Dose.FC.LYZ.S (log 2 fold change) (ISC-enriched organoids [1]; Dose 2.00 uM): 0.093; Dose.FC.LYZ.S (log 2 fold change) (ISC-enriched organoids [1]; Dose 10.00 uM): 0.100; Z.LYZ.NS (standard z score) (ISC-enriched organoids [2]; Dose 0.08 uM, primary screen): 0.828; Dose.FC.LYZ.NS (log 2 fold change) (ISC-enriched organoids [2]; Dose 0.08 uM, primary screen): 0.095; Z.LYZ.NS (standard z score) (ISC-enriched organoids [2]; Dose 0.40 uM, primary screen): 1.066; Dose.FC.LYZ.NS (log 2 fold change) (ISC-enriched organoids [2]; Dose 0.40 uM, primary screen): 0.122; Z.LYZ.NS (standard z score) (ISC-enriched organoids [2]; Dose 2.00 uM, primary screen): 1.012; Dose.FC.LYZ.NS (log 2 fold change) (ISC-enriched organoids [2]; Dose 2.00 uM, primary screen): 0.116; Z.LYZ.NS (standard z score) (ISC-enriched organoids [2]; Dose 10.00 uM, primary screen): 0.407; Dose.FC.LYZ.NS (log 2 fold change) (ISC-enriched organoids [2]; Dose 10.00 uM, primary screen): 0.047; Z.CTG (standard z score) (ISC-enriched organoids [3]; Dose 0.08 uM, primary screen): 1.397; Dose.FC.CTG (log 2 fold change) (ISC-enriched organoids [3]; Dose 0.08 uM, primary screen): 0.585; Z.CTG (standard z score) (ISC-enriched organoids [3]; Dose 0.40 uM, primary screen): 0.845; Dose.FC.CTG (log 2 fold change) (ISC-enriched organoids [3]; Dose 0.40 uM, primary screen): 0.354; Z.CTG (standard z score) (ISC-enriched organoids [3]; Dose 2.00 uM, primary screen): 0.856; Dose.FC.CTG (log 2 fold change) (ISC-enriched organoids [3]; Dose 2.00 uM, primary screen): 0.358; Z.CTG (standard z score) (ISC-enriched organoids [3]; Dose 10.00 uM, primary screen): 1.401; Dose.FC.CTG (log 2 fold change) (ISC-enriched organoids [3]; Dose 10.00 uM, primary screen): 0.586
CO[C@H]1C[C@@H]2CC[C@@H](C)[C@@](O)(O2)C(=O)C(=O)N2CCCC[C@H]2C(=O)O[C@H]([C@H](C)C[C@@H]2CC[C@@H](OC(=O)C(C)(CO)CO)[C@H](OC)C2)CC(=O)[C@H](C)/C=C(\C)[C@@H](O)[C@@H](OC)C(=O)[C@H](C)C[C@H](C)/C=C/C=C/C=C/1C [Temsirolimus (CCI-779, NSC 683864)]				0.153							1.035	0.119							0.478	0.200	Dose.FC.LYZ.S (log 2 fold change) (ISC-enriched organoids [1]; Dose 0.08 uM): 0.082; Dose.FC.LYZ.S (log 2 fold change) (ISC-enriched organoids [1]; Dose 0.40 uM): 0.152; Dose.FC.LYZ.S (log 2 fold change) (ISC-enriched organoids [1]; Dose 2.00 uM): 0.132; Z.LYZ.NS (standard z score) (ISC-enriched organoids [2]; Dose 0.08 uM, primary screen): 0.790; Dose.FC.LYZ.NS (log 2 fold change) (ISC-enriched organoids [2]; Dose 0.08 uM, primary screen): 0.091; Z.LYZ.NS (standard z score) (ISC-enriched organoids [2]; Dose 0.40 uM, primary screen): 0.763; Dose.FC.LYZ.NS (log 2 fold change) (ISC-enriched organoids [2]; Dose 0.40 uM, primary screen): 0.088; Z.LYZ.NS (standard z score) (ISC-enriched organoids [2]; Dose 2.00 uM, primary screen): 1.494; Dose.FC.LYZ.NS (log 2 fold change) (ISC-enriched organoids [2]; Dose 2.00 uM, primary screen): 0.172; Z.CTG (standard z score) (ISC-enriched organoids [3]; Dose 0.08 uM, primary screen): 1.228; Dose.FC.CTG (log 2 fold change) (ISC-enriched organoids [3]; Dose 0.08 uM, primary screen): 0.514; Z.CTG (standard z score) (ISC-enriched organoids [3]; Dose 0.40 uM, primary screen): 1.393; Dose.FC.CTG (log 2 fold change) (ISC-enriched organoids [3]; Dose 0.40 uM, primary screen): 0.583; Z.CTG (standard z score) (ISC-enriched organoids [3]; Dose 2.00 uM, primary screen): 1.382; Dose.FC.CTG (log 2 fold change) (ISC-enriched organoids [3]; Dose 2.00 uM, primary screen): 0.578
C[C@H](Cn1cnc2c(N)ncnc21)OCP(=O)(O)O [Tenofovir]	0.045	−0.080	−0.171	−0.271	0.673	0.077	−0.662	−0.076	−1.153	−0.132	−1.899	−0.218	0.045	0.019	−0.200	−0.084	−0.308	−0.129	−0.804	−0.337	
CN(C)CCCCC(=O)Nc1ccc(NC(=S)NC(=O)c2ccc(C(C)(C)C)cc2)cc1 [Tenovin-6]	0.028	−0.109	−0.328	−0.344	1.050	0.121	−0.463	−0.053	−1.686	−0.194	−1.671	−0.192	0.165	0.069	−1.209	−0.506	−2.654	−1.111	−3.414	−1.429	
